Reference: patent US8008007B2, “S-adenosyl-L-methionine analogs with extended activated groups for transfer by methyltransferases” (RWTH Aachen, priority 2005, dated 2011)

Legend:
Format in all cases: biochemical
M.TaqI-V21G = biological target: T1, M.TaqI-V21G (Thermus aquaticus, UniProt P14385, V21G); experiment: DNA protection assay with M.TaqI variant V21G on phage lambda DNA; conditions: 1 μg phage lambda DNA, cofactor 300 μM, 60° C. for 4 h, then R.TaqI
T1 construct: made in house
Source text: (§1) Transfer kinetics of the activated ethyl (—CH2CH3), propyl (—CH2CH2CH3), prop-2-enyl (—CH2CH═CH2), prop-2-ynyl (—CH2C≡CH), but-2-ynyl (—CH2C≡CCH3), pent-2-ynyl (—CH2C≡CCH2CH3) and benzyl group (—CH2C6H5) from cofactors 3-9 by the DNA adenine-N6 methyltransferase M.TaqI and its variant V21 G, the DNA cytosine-C5 methyltransferase M.HhaI and its variant Q82A, the DNA cytosine-N4 methyltransferase M.BcnIB and the DNA cytosine-C5 methyltransferase M.SssI variant Q142A to phage lambda DNA (48502 base pairs) were investigated using a DNA protection assay. This assay makes use of the fact that DNA methyltransferase-catalyzed modifications of nucleobases within the recognition sequences of restriction endonucleases can protect the DNA against fragmentation by these enzymes. […] Unmodified DNA containing 5′-TCGA-3′ recognition sequences is readily fragmentated by R.TaqI. After DNA modification by M.TaqI in the presence of a cofactor with an activated group Z—R modified 5′-TCGA^Z—R-3′ sequences are formed and, as a result, R.TaqI is unable to fragment the modified DNA. Occurrence of fragmentation is then analyzed by agarose gel electrophoresis.
(§2) By varying the amounts of DNA methyltransferase, this assay is used to investigate the enzymatic activities of the different DNA methyltransferases with cofactors 3-9 and compare them to the enzymatic activities with the natural cofactor 1. The minimal amount of DNA methyltransferase needed to fully protect 1 μg of phage lambda DNA against restriction endonuclease fragmentation under the given experimental conditions is defined as one enzyme unit (u).
(§3) Afterwards a solution (30 μL) containing R.TaqI restriction endonuclease (40 u, MBI Fermentas), bovine serum albumin (0.166 mg/mL) and buffer (16.6 mM Tris hydrochloride, 166 mM sodium chloride, 8.3 mM magnesium chloride, pH 8.0) was added to each dilution and incubation at 60-65° C. was continued for 15 min. Loading buffer (10 μL, 0.25% bromphenol blue, 30% glycerol) was added to each sample, and aliquots (12 μL) were analyzed for the degree of protection by agarose gel (1%) electrophoresis. Parallel control experiments were performed with phage lambda DNA in the absence of M.TaqI and in the presence of M.TaqI (200 ng).
Therefore, the codon for V21 was changed to a codon for glycine by standard PCR mutagenesis (Ho et al., (1989) Gene 77, 51-59) and the correct DNA sequence of the complete gene was verified by DNA sequencing. […] The DNA protection assay with the V21G variant was performed as described for the wild type (Example 3A.1).

M.HhaI-Q82A = biological target: T2, M.HhaI-Q82A (Haemophilus parahaemolyticus, UniProt P05102, Q82A); experiment: Modification of cytosine-C5 in duplex oligodeoxynucleotide III.IV by M.HhaI-Q82A, nucleoside analysis by HPLC/ESI-MS; conditions: duplex III.IV 12.5 μM, cofactor 300 μM, enzyme 15 μM, 37° C. over night
T2 construct: made in house
Source text: Transfer of the activated ethyl (CH2CH3), propyl (CH2CH2CH3), prop-2-enyl (CH2CHCH2), prop-2-ynyl group (CH2CCH), but-2-ynyl (CH2CCCH3), pent-2-ynyl (CH2CCCH2CH3) or benzyl group (CH2C6H5) from cofactors 3-9 by the DNA adenine-N6 methyltransferase M.TaqI, the DNA cytosine-C5 methyltransferase M.HhaI variant Q82A or the DNA cytosine-N4 methyltransferase M.BcnIB to DNA was first investigated using short duplex oligodeoxynucleotides as substrates. After enzymatic transfer the duplex oligodeoxynucleotides were enzymatically fragmented and the resulting modified nucleosides were analyzed by reversed-phase HPLC coupled with ESI-MS.
Therefore, the codon for Q82 was changed to a codon for alanine by standard Kunkel mutagenesis (Kunkel et al., […] Proc. Natl. Acad. Sci. USA 82, 488-492) and the correct DNA sequence of the complete gene was verified by DNA sequencing. Expression and purification of the Q82A variant was performed as described for the wild-type enzyme (Kumar et al., (1992) Biochemistry 31, 8648-8653; Klimasauskas et al., (1998) EMBO J. 17, 317-324). The presence of the amino acid substitution was verified by mass spectrometric analysis of purified M.HhaI-Q82A.
The duplex oligodeoxynucleotide III.IV was produced by mixing equal molar amounts (2.5 nmol) of complementary single-stranded oligodeoxynucleotide III (5′-[…]-3′) (SEQ ID NO. 3) and IV (5′-[…]-3′) (SEQ ID NO. 4) in water, heating at 85° C. for 5 min and slow cooling to room temperature. […] M.HhaI-Q82A was denatured by heating to 80° C. for 10 min and incubation with Proteinase K at 55° C. for 1 h. Hydrolysis products were removed by gel filtration (G-25 column, Amersham Biosciences).
The obtained solutions of duplex oligodeoxynucleotides were treated with buffer ( 1/10 volume, 100 mM Tris hydrochloride, 100 mM magnesium chloride, 10 mM zinc acetate, pH 7.5) containing Nuclease P1 (1500 u, Sigma) and calf intestine alkaline phosphatase (30 u, MBI Fermentas) and incubated at 37° C. for 4 h. Nucleosides were analyzed by reversed-phase HPLC (Discovery C18 150×2.1 mm, 5 μm, equipped with a Supelguard Discovery C18 20×2.1 mm, 5 μm, pre-column, Supelco, Germany) coupled with a mass spectrometric detector (HP 1100 series ESI-MS equipped with single quadruple). Compounds were eluted with methanol (0% for 6 min, followed by linear gradients to 56% in 15 min and to 80% in 1 min) in ammonium formate buffer (20 mM, pH 4.25 for cofactors 3, 4, 6 and pH 3.5 for cofactors 5, 7, 8) at a flow of 0.3 mL/min and detected at 280 nm. For on-line mass spectrometric detection post-column mobile phase modification (equal co-flow of 96% methanol, 4% formic acid and 1 mM sodium hydroxide) was used to enhance the detection efficiency of 2′-deoxycytidine and its derivatives. Mass spectra were recorded in 50-600 m/z range.

M.TaqI = biological target: T3, M.TaqI (Thermus aquaticus, UniProt P14385); experiment: DNA protection assay with M.TaqI (wild-type) on phage lambda DNA; conditions: cofactor 300 μM, then R.TaqI
T3 construct: made in house
Source text: as §1, §2, §3
Afterwards a solution (10 μL) containing R.TaqI restriction endonuclease (10 u, MBI Fermentas), bovine serum albumin (0.1 mg/mL) and buffer (33 mM Tris acetate, 66 mM potassium acetate, 10 mM magnesium acetate, pH 7.9) was added to each dilution and incubation was continued at 65° C. for 1 h. […] Parallel control experiments were performed with phage lambda DNA in the absence of M.TaqI and in the presence of M.TaqI (180 ng).

[1] = 1 μg phage lambda DNA, 60° C. for 4 h, 1 u = minimal enzyme amount fully protecting 1 μg DNA

T1 sequence (P14385 whole entry V21G): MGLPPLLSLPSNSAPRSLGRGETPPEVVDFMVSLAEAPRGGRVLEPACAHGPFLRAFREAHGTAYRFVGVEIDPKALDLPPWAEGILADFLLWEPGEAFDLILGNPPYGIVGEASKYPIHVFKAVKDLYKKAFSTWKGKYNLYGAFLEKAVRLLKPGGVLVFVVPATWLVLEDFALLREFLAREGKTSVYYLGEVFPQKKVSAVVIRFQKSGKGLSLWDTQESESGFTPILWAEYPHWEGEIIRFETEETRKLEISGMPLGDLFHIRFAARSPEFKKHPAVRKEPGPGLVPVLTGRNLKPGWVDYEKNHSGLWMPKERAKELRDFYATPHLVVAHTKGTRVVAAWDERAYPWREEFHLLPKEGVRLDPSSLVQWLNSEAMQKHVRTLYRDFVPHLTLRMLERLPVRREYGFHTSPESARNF
T2 sequence (P05102 whole entry Q82A): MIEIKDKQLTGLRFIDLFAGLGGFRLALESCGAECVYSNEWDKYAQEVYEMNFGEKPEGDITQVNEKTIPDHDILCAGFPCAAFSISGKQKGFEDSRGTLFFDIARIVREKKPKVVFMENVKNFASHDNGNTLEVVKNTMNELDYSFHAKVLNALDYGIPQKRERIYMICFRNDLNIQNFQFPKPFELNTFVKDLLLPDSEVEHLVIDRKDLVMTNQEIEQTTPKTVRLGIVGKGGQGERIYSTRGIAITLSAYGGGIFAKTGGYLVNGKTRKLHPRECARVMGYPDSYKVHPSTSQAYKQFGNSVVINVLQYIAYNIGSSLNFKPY
T3 sequence (P14385 whole entry): as the sequence (P14385 whole entry V21G) above, with G21V counted along it

CC[S+](CCC(N)C(=O)O)CC1OC(n2cnc3c(N)ncnc32)C(O)C1O (stereo not shown) [Cofactor 3]
specific activity of M.TaqI-V21G with the cofactor (M.TaqI-V21G): 5 u/μg | cofactor function for M.HhaI-Q82A (transfer of group Z-R to cytosine-C5) (M.HhaI-Q82A): functions as a cofactor | specific activity of M.TaqI with the cofactor (M.TaqI; [1]): 10 u/μg

C#CC[S+](CCC(N)C(=O)O)CC1OC(n2cnc3c(N)ncnc32)C(O)C1O (stereo not shown) [Cofactor 6]
specific activity of M.TaqI-V21G with the cofactor (M.TaqI-V21G): 20 u/μg | cofactor function for M.HhaI-Q82A (transfer of group Z-R to cytosine-C5) (M.HhaI-Q82A): functions as a cofactor | specific activity of M.TaqI with the cofactor (M.TaqI; [1]): 10 u/μg

C=CC[S+](CCC(N)C(=O)O)CC1OC(n2cnc3c(N)ncnc32)C(O)C1O (stereo not shown) [Cofactor 5]
specific activity of M.TaqI-V21G with the cofactor (M.TaqI-V21G): 640 u/μg | cofactor function for M.HhaI-Q82A (transfer of group Z-R to cytosine-C5) (M.HhaI-Q82A): functions as a cofactor | specific activity of M.TaqI with the cofactor (M.TaqI; [1]): 80 u/μg

CCC[S+](CCC(N)C(=O)O)CC1OC(n2cnc3c(N)ncnc32)C(O)C1O (stereo not shown) [Cofactor 4]
specific activity of M.TaqI-V21G with the cofactor (M.TaqI-V21G): < 5 u/μg | cofactor function for M.HhaI-Q82A (transfer of group Z-R to cytosine-C5) (M.HhaI-Q82A): does not function as a cofactor | specific activity of M.TaqI with the cofactor (M.TaqI; [1]): < 5 u/μg

NCCCC(=O)NCC#CC[S+](CCC(N)C(=O)O)CC1OC(n2cnc3c(N)ncnc32)C(O)C1O (stereo not shown) [Cofactor 10]
specific activity of M.TaqI with the cofactor (M.TaqI; 1.03 μg phage lambda DNA, 60° C. for 1 h only (multiply by four to compare with 4 h values)): 11 u/μg

CC#CC[S+](CCC(N)C(=O)O)CC1OC(n2cnc3c(N)ncnc32)C(O)C1O (mixture of isomers) [Cofactor 7]
specific activity of M.TaqI-V21G with the cofactor (M.TaqI-V21G): 80 u/μg | cofactor function for M.HhaI-Q82A (transfer of group Z-R to cytosine-C5) (M.HhaI-Q82A): functions as a cofactor | specific activity of M.TaqI with the cofactor (M.TaqI; [1]): 1280 u/μg

CCC#CC[S+](CCC(N)C(=O)O)CC1OC(n2cnc3c(N)ncnc32)C(O)C1O (stereo not shown) [Cofactor 8]
specific activity of M.TaqI-V21G with the cofactor (M.TaqI-V21G): 80 u/μg | cofactor function for M.HhaI-Q82A (transfer of group Z-R to cytosine-C5) (M.HhaI-Q82A): functions as a cofactor | specific activity of M.TaqI with the cofactor (M.TaqI; [1]): 640 u/μg
